Laboratory results reported in ChEMBL document CHEMBL1201862, “PubChem BioAssay data set” (2004).
Activity calls are given as the source filed them.

Assays:
[1] = cells; format: functional, cell-based
[2] = cells; format: functional, cell-based; remark: listed apart in the source
[3] = cytotoxicity toward HT-29 cells – cell-based, CellTiter-Glo luminescence, IC50, dose response (AID 1117330); format: functional
[4] = HeLa 4N DNA content increase, dose response, cell-based, IC50 (AID 1117351); format: functional
[5] = HeLa 2N DNA content increase, dose response, cell-based, IC50 (AID 1117349); format: functional
[6] = target: Beta-2 adrenergic receptor (Homo sapiens, UniProt P07550); test: beta2AR agonists driving receptor internalization, dose response, cell-based, FAP fluorogen, flow cytometry, cherry pick 1 (AID 588763); format: functional
Beta-2 adrenergic receptor, sequence (P07550 whole entry): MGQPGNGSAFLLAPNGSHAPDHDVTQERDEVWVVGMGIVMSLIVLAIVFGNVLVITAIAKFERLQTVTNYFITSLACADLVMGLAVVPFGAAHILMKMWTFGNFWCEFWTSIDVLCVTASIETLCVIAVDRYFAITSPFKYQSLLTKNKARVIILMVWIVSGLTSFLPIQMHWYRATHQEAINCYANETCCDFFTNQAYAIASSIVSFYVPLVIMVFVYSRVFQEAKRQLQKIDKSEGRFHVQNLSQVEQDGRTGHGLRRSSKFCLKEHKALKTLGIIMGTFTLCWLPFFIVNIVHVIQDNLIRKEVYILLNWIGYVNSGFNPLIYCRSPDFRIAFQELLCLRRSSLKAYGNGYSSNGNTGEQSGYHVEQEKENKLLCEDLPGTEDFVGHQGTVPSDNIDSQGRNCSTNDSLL

[7] = microbe, parasite or virus in culture; format: functional; settings: Mycobacterium tuberculosis
[8] = target: Cytochrome P450 2C9 (Homo sapiens, UniProt P11712)
Cytochrome P450 2C9, sequence (P11712 whole entry): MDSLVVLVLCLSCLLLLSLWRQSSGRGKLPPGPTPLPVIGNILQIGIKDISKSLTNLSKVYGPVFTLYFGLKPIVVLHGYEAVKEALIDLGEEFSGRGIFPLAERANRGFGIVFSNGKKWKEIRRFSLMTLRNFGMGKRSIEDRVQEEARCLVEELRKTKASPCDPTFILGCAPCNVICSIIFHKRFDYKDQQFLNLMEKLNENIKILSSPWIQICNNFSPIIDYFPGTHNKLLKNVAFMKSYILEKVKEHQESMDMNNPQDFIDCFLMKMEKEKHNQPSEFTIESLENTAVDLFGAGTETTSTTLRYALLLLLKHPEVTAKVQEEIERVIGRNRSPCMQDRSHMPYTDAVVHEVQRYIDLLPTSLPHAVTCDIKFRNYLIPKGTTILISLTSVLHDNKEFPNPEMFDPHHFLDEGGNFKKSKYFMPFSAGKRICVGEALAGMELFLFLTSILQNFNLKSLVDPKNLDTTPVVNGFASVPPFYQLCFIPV

[9] = target: Cytochrome P450 2D6 (Homo sapiens, UniProt P10635);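 note: CYP2D6 member of a cytochrome P450 panel assay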
Cytochrome P450 2D6, sequence (P10635 whole entry): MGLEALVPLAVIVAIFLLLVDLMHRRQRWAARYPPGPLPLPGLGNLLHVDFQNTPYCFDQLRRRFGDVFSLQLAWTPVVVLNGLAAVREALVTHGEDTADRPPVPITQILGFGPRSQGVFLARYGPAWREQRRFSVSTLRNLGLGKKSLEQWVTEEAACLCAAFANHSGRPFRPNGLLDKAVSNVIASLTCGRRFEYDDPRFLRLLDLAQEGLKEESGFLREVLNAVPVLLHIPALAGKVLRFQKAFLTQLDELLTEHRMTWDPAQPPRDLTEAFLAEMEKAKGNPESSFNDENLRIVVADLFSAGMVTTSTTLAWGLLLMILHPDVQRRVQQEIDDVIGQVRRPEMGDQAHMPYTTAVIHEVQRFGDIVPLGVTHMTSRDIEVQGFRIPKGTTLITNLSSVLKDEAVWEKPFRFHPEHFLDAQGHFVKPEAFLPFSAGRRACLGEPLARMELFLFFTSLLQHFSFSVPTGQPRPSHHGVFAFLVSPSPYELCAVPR

[10] = target: T1, Cytochrome P450 1A2 (Homo sapiens, UniProt P05177);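 note: PubChem cytochrome P450 panel assay, CYP1A2 panel member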
T1 sequence (P05177 whole entry): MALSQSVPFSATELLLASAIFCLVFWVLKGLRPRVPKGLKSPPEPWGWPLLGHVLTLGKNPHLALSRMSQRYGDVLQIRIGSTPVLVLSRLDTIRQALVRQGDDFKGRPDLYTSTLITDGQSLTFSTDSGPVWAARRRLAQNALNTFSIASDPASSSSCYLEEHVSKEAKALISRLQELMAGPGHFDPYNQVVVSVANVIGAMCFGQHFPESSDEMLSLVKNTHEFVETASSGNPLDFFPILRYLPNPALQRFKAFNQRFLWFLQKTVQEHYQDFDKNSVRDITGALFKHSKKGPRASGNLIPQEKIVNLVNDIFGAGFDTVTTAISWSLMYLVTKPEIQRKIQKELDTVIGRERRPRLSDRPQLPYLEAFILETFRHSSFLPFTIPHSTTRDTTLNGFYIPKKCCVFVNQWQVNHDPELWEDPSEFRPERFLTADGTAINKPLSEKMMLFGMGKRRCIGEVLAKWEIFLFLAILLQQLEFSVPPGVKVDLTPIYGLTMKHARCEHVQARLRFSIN

[11] = system: BJ; test: cytotoxicity toward BJ-TERT fibroblasts, dose response, cell-based, RAS-independent, luminescence (AID 1933); format: functional; settings: Homo sapiens
[12] = system: BJ; test: cells; format: functional, cell-based; settings: Homo sapiens
[13] = system: BJ; test: cytotoxicity toward BJ-TERT-LT-ST fibroblasts, dose response, cell-based, RAS-independent, luminescence (AID 1935); format: functional; settings: Homo sapiens;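 note: BJ fibroblasts immortalized with TERT plus LT and ST oncogenes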
[14] = cytotoxicity toward DRD oncogenic fibroblasts, dose response, cell-based, non-viral oncogenic, luminescence (AID 1934); format: functional; settings: Homo sapiens
[15] = system: BJ; test: cytotoxicity toward Ras-transformed BJeLR fibroblasts, dose response, cell-based, alamar blue fluorescence, cherrypicked samples (AID 2631); format: functional; settings: Homo sapiens;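 note: confirmatory dose-response assay in RAS-dependent BJ fibroblasts engineered with TERT, LT and ST, with cytotoxicity read by fluorescence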
[16] = Counterscreen for inhibitors of Trypanosoma brucei methionyl tRNA synthetase (MetRS): Luminescence-based cell-based high throughput dose response assay to identify compounds that are cytotoxic to Jurkat human T lymphocyte cells.; format: functional
[17] = target: T2, Methionyl-tRNA synthetase, putative (Trypanosoma brucei brucei, UniProt Q38C91); format: functional, Trypanosoma brucei brucei strain 927/4 GUTat10.1
T2 sequence (Q38C91 whole entry): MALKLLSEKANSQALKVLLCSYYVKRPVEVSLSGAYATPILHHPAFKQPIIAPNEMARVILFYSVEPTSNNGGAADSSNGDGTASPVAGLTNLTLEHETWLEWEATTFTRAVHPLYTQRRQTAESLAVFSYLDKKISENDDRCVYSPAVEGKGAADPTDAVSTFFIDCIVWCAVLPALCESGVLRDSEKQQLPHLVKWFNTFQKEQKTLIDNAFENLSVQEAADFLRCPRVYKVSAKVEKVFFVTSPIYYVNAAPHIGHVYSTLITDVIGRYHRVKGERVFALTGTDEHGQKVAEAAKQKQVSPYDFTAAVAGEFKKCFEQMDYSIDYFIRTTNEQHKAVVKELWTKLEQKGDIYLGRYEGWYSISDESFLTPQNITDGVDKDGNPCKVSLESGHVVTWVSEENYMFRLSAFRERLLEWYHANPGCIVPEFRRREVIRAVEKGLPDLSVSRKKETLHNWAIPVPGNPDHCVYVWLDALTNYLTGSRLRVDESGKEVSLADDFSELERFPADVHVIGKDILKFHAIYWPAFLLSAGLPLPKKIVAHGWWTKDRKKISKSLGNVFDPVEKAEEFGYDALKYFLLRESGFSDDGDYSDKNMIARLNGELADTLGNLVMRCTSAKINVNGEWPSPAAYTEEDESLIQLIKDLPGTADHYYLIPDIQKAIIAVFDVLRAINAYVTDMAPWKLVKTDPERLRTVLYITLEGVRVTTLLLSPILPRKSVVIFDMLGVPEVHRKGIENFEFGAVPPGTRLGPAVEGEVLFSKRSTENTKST

[18] = target: T3, Polyadenylate-binding protein 1 (Homo sapiens, UniProt P11940); test: PABP1 MLLE–PAM2 interaction inhibitors, dose response, miRNA deadenylation inhibitor project, biochemical, fluorescence polarization, Cy5-PAM2 peptide, secondary (AID 602260); format: functional; settings: read-out: IC50_Mean
T3 sequence (P11940 whole entry): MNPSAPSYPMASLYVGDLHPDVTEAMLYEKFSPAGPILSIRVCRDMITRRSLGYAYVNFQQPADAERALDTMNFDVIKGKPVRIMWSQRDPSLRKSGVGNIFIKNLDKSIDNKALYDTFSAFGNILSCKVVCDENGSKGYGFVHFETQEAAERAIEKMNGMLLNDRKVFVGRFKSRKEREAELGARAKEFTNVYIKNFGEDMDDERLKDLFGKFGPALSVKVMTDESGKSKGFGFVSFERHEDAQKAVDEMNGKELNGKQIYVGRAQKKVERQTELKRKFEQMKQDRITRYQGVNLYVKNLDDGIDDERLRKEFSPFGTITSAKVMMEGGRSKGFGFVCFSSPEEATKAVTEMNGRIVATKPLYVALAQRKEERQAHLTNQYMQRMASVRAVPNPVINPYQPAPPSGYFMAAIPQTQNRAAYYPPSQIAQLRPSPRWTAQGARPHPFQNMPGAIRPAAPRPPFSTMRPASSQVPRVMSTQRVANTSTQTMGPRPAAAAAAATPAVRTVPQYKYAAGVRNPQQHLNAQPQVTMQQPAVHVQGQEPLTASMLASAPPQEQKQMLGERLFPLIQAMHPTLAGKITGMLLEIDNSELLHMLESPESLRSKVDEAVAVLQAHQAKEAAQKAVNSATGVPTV

[19] = target: T3, Polyadenylate-binding protein 1; test: PABP1 MLLE–PAM2 binding inhibitor potency, dose response, biochemical, fluorescence polarization, FITC-PAM2 peptide (AID 602259); format: functional; settings: read-out: IC50_Mean
[20] = target: T2, Methionyl-tRNA synthetase, putative; format: functional, Trypanosoma brucei brucei strain 927/4 GUTat10.1; remark: listed apart in the source
[21] = LGR2 antagonists, dose response, cell-based, HEK293, CRE-luciferase reporter, cherry pick, set 2 (AID 743343); format: functional;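 note: transfected cells were stimulated with diluted bursicon conditioned medium after compound addition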
[22] = target: T4, Calpain-2 catalytic subunit (Sus scrofa, UniProt P43367); test: pig calpain II inhibitor potency, dose response, biochemical, fluorogenic peptide substrate (AID 1420); format: functional
T4 sequence (P43367 whole entry): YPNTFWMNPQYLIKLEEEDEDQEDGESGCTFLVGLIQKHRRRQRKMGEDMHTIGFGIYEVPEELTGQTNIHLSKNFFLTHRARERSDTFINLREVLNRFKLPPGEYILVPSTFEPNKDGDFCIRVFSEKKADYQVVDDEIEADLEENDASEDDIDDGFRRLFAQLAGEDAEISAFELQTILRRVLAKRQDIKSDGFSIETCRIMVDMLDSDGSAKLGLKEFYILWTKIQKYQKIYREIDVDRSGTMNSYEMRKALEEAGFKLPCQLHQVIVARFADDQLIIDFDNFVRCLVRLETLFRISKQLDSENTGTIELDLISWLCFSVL

[23] = HepG2 cell cytotoxicity, dose response, cytotoxicity control, plate reader, cherry-pick, antagonist series (AID 743416); format: functional, cell-based
[24] = MC4R antagonists, dose response, counter-screen for LGR2 antagonist project, cell-based, plate reader, cherry pick (AID 743444); format: functional;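 note: transfected HEK 293 cells stimulated with alpha-MSH peptide; potency of inhibitors of the alpha-MSH evoked signal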
[25] = HEK293 cell cytotoxicity, dose response, cytotoxicity control, plate reader, cherry-picked samples (AID 743446); format: functional, cell-based
[26] = system: Vero; test: host cell cytotoxicity of antiviral hits, dose response, cytotoxicity control for West Nile virus antiviral project, secondary assay (AID 1650); format: functional; settings: Chlorocebus sabaeus
[27] = target: T5, Carboxy-terminal domain RNA polymerase II polypeptide A small phosphatase 1 (Homo sapiens, UniProt Q9GZU7); test: inhibitors of CTDSP1, concentration-response testing, biochemical assay, absorbance-based, actives from ultra-high-throughput screening (AID 540297); format: functional
T5 sequence (Q9GZU7 whole entry): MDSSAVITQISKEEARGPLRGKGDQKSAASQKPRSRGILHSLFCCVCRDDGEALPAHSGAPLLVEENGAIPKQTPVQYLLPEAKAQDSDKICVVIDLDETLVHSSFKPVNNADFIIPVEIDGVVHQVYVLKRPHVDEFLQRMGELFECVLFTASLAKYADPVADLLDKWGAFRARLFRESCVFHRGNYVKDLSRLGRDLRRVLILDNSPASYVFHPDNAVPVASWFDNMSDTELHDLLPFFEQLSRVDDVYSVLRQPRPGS

For `O=C(Cn1cnc([N+](=O)[O-])c1)NCCc1ccccc1`, the EC50 [1] was > 29.9 µM (inactive) and the IC50 [2] was > 29.9 µM (inactive).

In the case of `CC(C)=CCNc1ncnc2c1ncn2[C@@H]1O[C@H](CO)[C@@H](O)[C@H]1O` [RIBOPRINE], the IC50 [3] is reported as > 20 µM (inactive), the IC50 [4] is reported as > 10 µM (inactive) and the IC50 [5] is reported as > 10 µM (inactive).

With `CCC(=O)N1CCc2cc(Br)cc(S(=O)(=O)N(C)c3ccc(OC)cc3)c21` the EC50 [6] was 0.0271 µM (active).

With `NC(=O)c1cccc(-c2cc(Nc3ccc(OC(F)(F)F)cc3)ncn2)c1` the CC50 [7] was > 40 µM (active).

For `O=[N+]([O-])c1ccc(Cl)c(/C=N/N2CCN(Cc3ccccc3Cl)CC2)c1`, the AC50 [8] was “inconclusive”, the AC50 [9] was 7.94 µM (inconclusive) and the AC50 [10] was 2.51 µM (inconclusive).

With `CC1(C)Cc2c(c(-c3ccco3)nc3sc4c(NCC5CCCO5)ncnc4c23)CO1` (stereo not drawn) the EC50 [6] was 0.0919 µM (active).

In the case of `CCc1ccc(NC(=O)[C@H](Cc2c[nH]c3ccccc23)NC(=O)[C@@H]2Cc3ccccc3CN2)cc1`, the EC50 [11] is reported as > 150 µM (not active), the EC50 [12] is reported as 10.8 µM (active) and the EC50 [13] is reported as > 150 µM (not active). The EC50 [14] was > 150 µM (inconclusive) and the EC50 [15] was > 133 µM (inactive).

With `O=C(CSc1n[nH]c2c3ccccc3nc-2n1)Nc1ccc2c(c1)OCO2` the IC50 [16] was 83.3 µM (inactive), the IC50 [17] was 4.39 µM (active) and the IC50 [18] was > 66 µM (inactive). The IC50 [19] was > 66 µM (inactive) and the IC50 [20] was 1.57 µM (active).

With `COC(=O)c1ccc2nc(NC(=O)C(C)(C)C)sc2c1` the AC50 [21] was 5.77 µM (active), the IC50 [22] was 24.1 µM (not active) and the AC50 [23] was > 52 µM (inactive). The AC50 [24] was 5.69 µM (active) and the AC50 [25] was > 52 µM (inactive).

In the case of `Cc1ccccc1Cn1ccc(NC(=O)c2nn(C)cc2[N+](=O)[O-])n1`, the CC50 [26] is reported as 12.1 µM (active).

With `CCNc1nc(NCC)n2c(SCC(=O)Nc3ccc(OC(F)F)cc3)nnc2n1` the IC50 [27] was 9.83 µM (active).
